Results reported in PubChem BioAssay AID1963834 (Molecular Pharmacology Branch, DTP, NCI, 2024).

Test system: 873145-292-R-J1-PDC complex spheroid viability
Test: Anticancer human tumor 873145-292-R-J1-PDC patient-derived renal clear cell carcinoma cell line growth inhibition [POLQ]
Conditions: for IC50: curve of first compound; for viability, T/C: stronger effect = lower value
Summary of the method: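 Complex spheroid viability model combining PDC tumour cells with endothelial (HUVEC) and MSC stromal cells. Novobiocin, ART-558 or RP6685 were tested singly and in combination with standard and investigational anticancer drugs. Each was titrated in half-log steps from near clinical Cmax, or from 10 microM where Cmax was unknown.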

[1] = second compound 0.0316 µM, first compound 0.0316 µM
[2] = second compound 0.0316 µM, first compound 0.1 µM
[3] = second compound 0.0316 µM, first compound 0.316 µM
[4] = second compound 0.0316 µM, first compound 1 µM
[5] = second compound 0.0316 µM, first compound 3.16 µM
[6] = second compound 0.0316 µM, first compound 10 µM
[7] = second compound 0.1 µM, first compound 0.0316 µM
[8] = second compound 0.1 µM, first compound 0.1 µM
[9] = second compound 0.1 µM, first compound 0.316 µM
[10] = second compound 0.1 µM, first compound 1 µM
[11] = second compound 0.1 µM, first compound 3.16 µM
[12] = second compound 0.1 µM, first compound 10 µM
[13] = second compound 0.316 µM, first compound 0.0316 µM
[14] = second compound 0.316 µM, first compound 0.1 µM
[15] = second compound 0.316 µM, first compound 0.316 µM
[16] = second compound 0.316 µM, first compound 1 µM
[17] = second compound 0.316 µM, first compound 3.16 µM
[18] = second compound 0.316 µM, first compound 10 µM
[19] = second compound 1 µM, first compound 0.0316 µM
[20] = second compound 1 µM, first compound 0.1 µM
[21] = second compound 1 µM, first compound 0.316 µM
[22] = second compound 1 µM, first compound 1 µM
[23] = second compound 1 µM, first compound 3.16 µM
[24] = second compound 1 µM, first compound 10 µM
[25] = second compound 3.16 µM, first compound 0.0316 µM
[26] = second compound 3.16 µM, first compound 0.1 µM
[27] = second compound 3.16 µM, first compound 0.316 µM
[28] = second compound 3.16 µM, first compound 1 µM
[29] = second compound 3.16 µM, first compound 3.16 µM
[30] = second compound 3.16 µM, first compound 10 µM
[31] = second compound 10 µM, first compound 0.0316 µM
[32] = second compound 10 µM, first compound 0.1 µM
[33] = second compound 10 µM, first compound 0.316 µM
[34] = second compound 10 µM, first compound 1 µM
[35] = second compound 10 µM, first compound 3.16 µM
[36] = second compound 10 µM, first compound 10 µM
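Further: spheroids exposed to compounds for 7 days before viability readout.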
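Wherever viability, T/C is given: luminescence signal used as surrogate for viable cell content; 100% = DMSO vehicle control viability.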

SMILES: C=CC(=O)N1CCN(c2nc(=O)n(-c3c(C)ccnc3C(C)C)c3nc(-c4c(O)cccc4F)c(F)cc23)C(C)C1 (stereo not given) + COC1C(OC(N)=O)C(O)C(Oc2ccc3c(O)c(NC(=O)c4ccc(O)c(CC=C(C)C)c4)c(=O)oc3c2C)OC1(C)C
- IC50 (second compound 0.0316 µM): > 10 µM
- IC50 (second compound 0.1 µM): > 10 µM
- IC50 (second compound 0.316 µM): > 10 µM
- IC50 (second compound 1 µM): > 10 µM
- IC50 (second compound 3.16 µM): > 10 µM
- IC50 (second compound 10 µM): > 10 µM
- viability, T/C [1]: 102%
- viability, T/C [2]: 97.9%
- viability, T/C [3]: 110%
- viability, T/C [4]: 114%
- viability, T/C [5]: 119%
- viability, T/C [6]: 130%
- viability, T/C [7]: 98.7%
- viability, T/C [8]: 99.6%
- viability, T/C [9]: 91.5%
- viability, T/C [10]: 111%
- viability, T/C [11]: 114%
- viability, T/C [12]: 114%
- viability, T/C [13]: 102%
- viability, T/C [14]: 97%
- viability, T/C [15]: 118%
- viability, T/C [16]: 113%
- viability, T/C [17]: 138%
- viability, T/C [18]: 119%
- viability, T/C [19]: 94.5%
- viability, T/C [20]: 94%
- viability, T/C [21]: 105%
- viability, T/C [22]: 104%
- viability, T/C [23]: 120%
- viability, T/C [24]: 126%
- viability, T/C [25]: 92.4%
- viability, T/C [26]: 92.7%
- viability, T/C [27]: 105%
- viability, T/C [28]: 113%
- viability, T/C [29]: 126%
- viability, T/C [30]: 121%
- viability, T/C [31]: 99.7%
- viability, T/C [32]: 109%
- viability, T/C [33]: 113%
- viability, T/C [34]: 116%
- viability, T/C [35]: 111%
- viability, T/C [36]: 125%

SMILES: CC(C)n1c(=O)n(C)c2cnc3cc(F)c(-c4ccc(OCCCN5CCCCC5)nc4)cc3c21 + COC1C(OC(N)=O)C(O)C(Oc2ccc3c(O)c(NC(=O)c4ccc(O)c(CC=C(C)C)c4)c(=O)oc3c2C)OC1(C)C
- IC50 (second compound 0.0316 µM): > 10 µM
- IC50 (second compound 0.1 µM): > 10 µM
- IC50 (second compound 0.316 µM): > 10 µM
- IC50 (second compound 1 µM): > 10 µM
- IC50 (second compound 3.16 µM): > 10 µM
- IC50 (second compound 10 µM): > 10 µM
- viability, T/C [1]: 96%
- viability, T/C [2]: 93%
- viability, T/C [3]: 99.2%
- viability, T/C [4]: 105%
- viability, T/C [5]: 92.8%
- viability, T/C [6]: 82.5%
- viability, T/C [7]: 94%
- viability, T/C [8]: 96.7%
- viability, T/C [9]: 92.9%
- viability, T/C [10]: 90%
- viability, T/C [11]: 100%
- viability, T/C [12]: 90.8%
- viability, T/C [13]: 95.5%
- viability, T/C [14]: 98.9%
- viability, T/C [15]: 109%
- viability, T/C [16]: 87.3%
- viability, T/C [17]: 104%
- viability, T/C [18]: 78.9%
- viability, T/C [19]: 105%
- viability, T/C [20]: 106%
- viability, T/C [21]: 92.9%
- viability, T/C [22]: 94.1%
- viability, T/C [23]: 90.8%
- viability, T/C [24]: 82.7%
- viability, T/C [25]: 96%
- viability, T/C [26]: 104%
- viability, T/C [27]: 98.7%
- viability, T/C [28]: 91.7%
- viability, T/C [29]: 90.5%
- viability, T/C [30]: 86.9%
- viability, T/C [31]: 96.2%
- viability, T/C [32]: 91.1%
- viability, T/C [33]: 104%
- viability, T/C [34]: 90.5%
- viability, T/C [35]: 107%
- viability, T/C [36]: 88.7%

SMILES: CC1COCCN1c1cc(C2(O)CC3CCC(C2)O3)c2cnn(-c3ccn[nH]3)c2n1 (stereo not given) + COC1C(OC(N)=O)C(O)C(Oc2ccc3c(O)c(NC(=O)c4ccc(O)c(CC=C(C)C)c4)c(=O)oc3c2C)OC1(C)C
- IC50 (second compound 0.0316 µM): 0.423 µM
- IC50 (second compound 0.1 µM): 0.562 µM
- IC50 (second compound 0.316 µM): 0.311 µM
- IC50 (second compound 1 µM): 0.484 µM
- IC50 (second compound 3.16 µM): 0.362 µM
- IC50 (second compound 10 µM): 0.691 µM
- viability, T/C [1]: 90.3%
- viability, T/C [2]: 71.8%
- viability, T/C [3]: 53.9%
- viability, T/C [4]: 40.4%
- viability, T/C [5]: 38.6%
- viability, T/C [6]: 37.2%
- viability, T/C [7]: 85.8%
- viability, T/C [8]: 67.2%
- viability, T/C [9]: 57.1%
- viability, T/C [10]: 43.6%
- viability, T/C [11]: 39.3%
- viability, T/C [12]: 38.5%
- viability, T/C [13]: 86.3%
- viability, T/C [14]: 72.9%
- viability, T/C [15]: 50.2%
- viability, T/C [16]: 40.2%
- viability, T/C [17]: 49.5%
- viability, T/C [18]: 37.7%
- viability, T/C [19]: 84.3%
- viability, T/C [20]: 68.6%
- viability, T/C [21]: 58.5%
- viability, T/C [22]: 38.9%
- viability, T/C [23]: 36.3%
- viability, T/C [24]: 37%
- viability, T/C [25]: 93.8%
- viability, T/C [26]: 73.5%
- viability, T/C [27]: 52.9%
- viability, T/C [28]: 38.3%
- viability, T/C [29]: 36.2%
- viability, T/C [30]: 38.5%
- viability, T/C [31]: 87.7%
- viability, T/C [32]: 71.9%
- viability, T/C [33]: 58.3%
- viability, T/C [34]: 45.6%
- viability, T/C [35]: 41.6%
- viability, T/C [36]: 40.9%

SMILES: CCc1cc2c(N3CCc4c(cc(Cn5ccnc5)cc4-c4cn(C)nc4C(F)(F)F)C3=O)cc(C)nc2c(OC)n1 + COC1C(OC(N)=O)C(O)C(Oc2ccc3c(O)c(NC(=O)c4ccc(O)c(CC=C(C)C)c4)c(=O)oc3c2C)OC1(C)C
- IC50 (second compound 0.0316 µM): > 10 µM
- IC50 (second compound 0.1 µM): > 10 µM
- IC50 (second compound 0.316 µM): > 10 µM
- IC50 (second compound 1 µM): > 10 µM
- IC50 (second compound 3.16 µM): > 10 µM
- IC50 (second compound 10 µM): > 10 µM
- viability, T/C [1]: 96%
- viability, T/C [2]: 98.1%
- viability, T/C [3]: 93.6%
- viability, T/C [4]: 99.2%
- viability, T/C [5]: 86.6%
- viability, T/C [6]: 83%
- viability, T/C [7]: 92.5%
- viability, T/C [8]: 105%
- viability, T/C [9]: 96.4%
- viability, T/C [10]: 88.5%
- viability, T/C [11]: 90.4%
- viability, T/C [12]: 79.8%
- viability, T/C [13]: 113%
- viability, T/C [14]: 97.5%
- viability, T/C [15]: 94.3%
- viability, T/C [16]: 90.8%
- viability, T/C [17]: 89.2%
- viability, T/C [18]: 83.3%
- viability, T/C [19]: 99.4%
- viability, T/C [20]: 106%
- viability, T/C [21]: 78.8%
- viability, T/C [22]: 84.7%
- viability, T/C [23]: 83.6%
- viability, T/C [24]: 84.2%
- viability, T/C [25]: 99.6%
- viability, T/C [26]: 93%
- viability, T/C [27]: 99.8%
- viability, T/C [28]: 82.7%
- viability, T/C [29]: 77.5%
- viability, T/C [30]: 74%
- viability, T/C [31]: 88.1%
- viability, T/C [32]: 82.8%
- viability, T/C [33]: 101%
- viability, T/C [34]: 77.7%
- viability, T/C [35]: 92.6%
- viability, T/C [36]: 96.2%

SMILES: CCc1cc2c(N3CCc4c(cc(Cn5ccnc5)cc4-c4cn(C)nc4C(F)(F)F)C3=O)ccnc2c(OC)n1 + COC1C(OC(N)=O)C(O)C(Oc2ccc3c(O)c(NC(=O)c4ccc(O)c(CC=C(C)C)c4)c(=O)oc3c2C)OC1(C)C
- IC50 (second compound 0.0316 µM): > 10 µM
- IC50 (second compound 0.1 µM): > 10 µM
- IC50 (second compound 0.316 µM): > 10 µM
- IC50 (second compound 1 µM): > 10 µM
- IC50 (second compound 3.16 µM): > 10 µM
- IC50 (second compound 10 µM): > 10 µM
- viability, T/C [1]: 97.1%
- viability, T/C [2]: 96.5%
- viability, T/C [3]: 98.2%
- viability, T/C [4]: 97.9%
- viability, T/C [5]: 86.8%
- viability, T/C [6]: 79.6%
- viability, T/C [7]: 106%
- viability, T/C [8]: 101%
- viability, T/C [9]: 87.7%
- viability, T/C [10]: 81.5%
- viability, T/C [11]: 82%
- viability, T/C [12]: 85%
- viability, T/C [13]: 107%
- viability, T/C [14]: 90.1%
- viability, T/C [15]: 86.4%
- viability, T/C [16]: 98.7%
- viability, T/C [17]: 96.6%
- viability, T/C [18]: 83.2%
- viability, T/C [19]: 94.1%
- viability, T/C [20]: 92.4%
- viability, T/C [21]: 86.7%
- viability, T/C [22]: 104%
- viability, T/C [23]: 84.3%
- viability, T/C [24]: 74.4%
- viability, T/C [25]: 103%
- viability, T/C [26]: 98.7%
- viability, T/C [27]: 96.5%
- viability, T/C [28]: 91.8%
- viability, T/C [29]: 82.4%
- viability, T/C [30]: 91.4%
- viability, T/C [31]: 88.4%
- viability, T/C [32]: 97.5%
- viability, T/C [33]: 87%
- viability, T/C [34]: 86.2%
- viability, T/C [35]: 85.1%
- viability, T/C [36]: 78.2%
